Measured values taken from ChEMBL document CHEMBL1201862, “PubChem BioAssay data set” (2004).
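How tested: cells in 96-well plates exposed to compound for 48 hours at five concentrations. Abbreviation: GI50, concentration required for 50% inhibition of growth.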 Calls of active or inactive are those of the source. Cut-off read from the data, not from the text of the source: active = GI50 up to about 1.1 µM and inactive = higher.

Experiments:
Assay in all cases: growth of human tumour cells (NCI), 48 h
[1] = tested on: CCRF-CEM
[2] = tested on: HOP-18
[3] = tested on: HCT-15
[4] = tested on: OVCAR-8
[5] = tested on: A549
[6] = tested on: LXFL 529
[7] = tested on: HCC 2998
[8] = tested on: SW-620
[9] = tested on: OVCAR-5
[10] = tested on: U-251
[11] = tested on: RXF 631
[12] = tested on: XF498
[13] = tested on: NCI-H23
[14] = tested on: COLO 205
[15] = tested on: KM12
[16] = tested on: UACC-62
[17] = tested on: NCI-H460
[18] = tested on: LOX IMVI
[19] = tested on: M14
[20] = tested on: UACC-257
[21] = tested on: RPMI-8226
[22] = tested on: SF-268
[23] = tested on: DMS-273
[24] = tested on: M19-MEL
[25] = tested on: KM-20L2
[26] = tested on: OVCAR-4
[27] = tested on: UO-31
[28] = tested on: K562
[29] = tested on: SK-MEL-2
[30] = tested on: SNB-19
[31] = tested on: MOLT-4
[32] = tested on: DMS-114
[33] = tested on: SNB-78
[34] = tested on: CAKI-1
[35] = tested on: SK-MEL-5
[36] = tested on: SF-539
[37] = tested on: EKVX
[38] = tested on: HT-29
[39] = tested on: NCI-H522
[40] = tested on: OVCAR-3
[41] = tested on: SNB-75
[42] = tested on: ACHN
[43] = tested on: SK-MEL-28
[44] = tested on: IGROV-1
[45] = tested on: HOP-62
[46] = tested on: SF-295
[47] = tested on: DLD-1
[48] = tested on: NCI-H226
[49] = tested on: 786-0
[50] = tested on: SK-OV-3
[51] = tested on: Malme-3M
[52] = tested on: SN12C
[53] = tested on: RXF 393
[54] = tested on: HOP-92
[55] = tested on: HCT-116
[56] = tested on: TK-10
[57] = tested on: HL-60
[58] = tested on: SR
[59] = tested on: A498

Compound: O=c1[nH]c(=O)n(C2CC(O)C(CO)O2)cc1C#Cc1cc(F)cc(F)c1 (stereo not drawn)
- GI50 [1]: > 100 µM (inactive)
- GI50 [2]: 24.7 µM (inactive)
- GI50 [3]: > 100 µM
- GI50 [4]: > 100 µM (inactive)
- GI50 [5]: > 100 µM (inactive)
- GI50 [6]: > 100 µM (inactive)
- GI50 [7]: > 100 µM (inactive)
- GI50 [8]: > 100 µM (inactive)
- GI50 [9]: > 100 µM (inactive)
- GI50 [10]: > 100 µM (inactive)
- GI50 [11]: > 100 µM (inactive)
- GI50 [12]: > 100 µM (inactive)
- GI50 [13]: > 100 µM (inactive)
- GI50 [14]: > 100 µM (inactive)
- GI50 [15]: > 100 µM (inactive)
- GI50 [16]: > 100 µM (inactive)
- GI50 [17]: > 100 µM (inactive)
- GI50 [18]: > 100 µM (inactive)
- GI50 [19]: > 100 µM (inactive)
- GI50 [20]: > 100 µM (inactive)
- GI50 [21]: > 100 µM (inactive)
- GI50 [22]: > 100 µM (inactive)
- GI50 [23]: > 100 µM (inactive)
- GI50 [24]: > 100 µM (inactive)
- GI50 [25]: > 10 µM (inactive)
- GI50 [26]: > 100 µM (inactive)
- GI50 [27]: > 100 µM (inactive)
- GI50 [28]: > 100 µM (inactive)
- GI50 [29]: > 100 µM (inactive)
- GI50 [30]: > 100 µM (inactive)
- GI50 [31]: > 100 µM (inactive)
- GI50 [32]: > 100 µM (inactive)
- GI50 [33]: > 100 µM (inactive)
- GI50 [34]: > 100 µM (inactive)
- GI50 [35]: > 100 µM (inactive)
- GI50 [36]: > 100 µM (inactive)
- GI50 [37]: > 100 µM (inactive)
- GI50 [38]: > 100 µM (inactive)
- GI50 [39]: > 100 µM (inactive)
- GI50 [40]: > 100 µM (inactive)
- GI50 [41]: 48.9 µM (inactive)
- GI50 [42]: > 100 µM (inactive)
- GI50 [43]: > 100 µM (inactive)
- GI50 [44]: > 100 µM (inactive)
- GI50 [45]: > 100 µM (inactive)
- GI50 [46]: > 100 µM (inactive)
- GI50 [47]: > 100 µM (inactive)
- GI50 [48]: > 100 µM (inactive)
- GI50 [49]: > 100 µM (inactive)
- GI50 [50]: > 100 µM (inactive)
- GI50 [51]: > 100 µM (inactive)
- GI50 [52]: > 100 µM (inactive)

Compound: O/N=C1/C(=C/c2ccc(Oc3ccccc3)cc2)CCCC1C(NO)c1ccc(Oc2ccccc2)cc1 (stereo not drawn)
- GI50 [1]: 12.2 µM (inactive)
- GI50 [2]: > 100 µM (inactive)
- GI50 [53]: 14.5 µM (inactive)
- GI50 [3]: 47 µM
- GI50 [4]: 26.4 µM (inactive)
- GI50 [5]: 13.8 µM (inactive)
- GI50 [6]: 33 µM (inactive)
- GI50 [7]: 32.5 µM (inactive)
- GI50 [54]: 17.9 µM (inactive)
- GI50 [8]: 32.4 µM (inactive)
- GI50 [9]: 63 µM (inactive)
- GI50 [10]: 51.2 µM (inactive)
- GI50 [11]: 33.2 µM (inactive)
- GI50 [12]: 29.7 µM (inactive)
- GI50 [13]: 16.9 µM (inactive)
- GI50 [14]: 19.3 µM (inactive)
- GI50 [15]: 22.3 µM (inactive)
- GI50 [16]: 43.9 µM (inactive)
- GI50 [17]: 27.9 µM (inactive)
- GI50 [18]: 13.6 µM (inactive)
- GI50 [19]: 40.6 µM (inactive)
- GI50 [20]: 50.1 µM (inactive)
- GI50 [21]: 18.2 µM (inactive)
- GI50 [22]: 37.2 µM (inactive)
- GI50 [23]: 28.6 µM (inactive)
- GI50 [24]: 39.6 µM (inactive)
- GI50 [25]: 11.2 µM (inactive)
- GI50 [26]: 29.7 µM (inactive)
- GI50 [27]: 21 µM (inactive)
- GI50 [28]: 19.8 µM (inactive)
- GI50 [55]: 11.5 µM (inactive)
- GI50 [29]: 45.6 µM (inactive)
- GI50 [30]: > 100 µM (inactive)
- GI50 [31]: 4.43 µM (inactive)
- GI50 [32]: 26.4 µM (inactive)
- GI50 [33]: 34.8 µM (inactive)
- GI50 [34]: 33.2 µM (inactive)
- GI50 [35]: 13.4 µM (inactive)
- GI50 [36]: 40 µM (inactive)
- GI50 [56]: 10.3 µM (inactive)
- GI50 [37]: 81.3 µM (inactive)
- GI50 [38]: 16.1 µM (inactive)
- GI50 [40]: 32 µM (inactive)
- GI50 [41]: 69.8 µM (inactive)
- GI50 [42]: 24 µM (inactive)
- GI50 [43]: 61.2 µM (inactive)
- GI50 [44]: 29.1 µM (inactive)
- GI50 [45]: > 100 µM (inactive)
- GI50 [46]: 41.6 µM (inactive)
- GI50 [47]: 66.1 µM (inactive)
- GI50 [48]: 25.1 µM (inactive)
- GI50 [49]: 28.6 µM (inactive)
- GI50 [50]: > 100 µM (inactive)
- GI50 [51]: 44.1 µM (inactive)
- GI50 [52]: 22.8 µM (inactive)
- GI50 [57]: 8.51 µM (inactive)

Compound: COc1ccc2[nH]c3c(c2c1)[C@H](C)C[C@@H]1C(=O)N(c2ccccc2)C(=O)[C@H]31
- GI50 [1]: 32.5 µM (inactive)
- GI50 [2]: 20.9 µM (inactive)
- GI50 [53]: 29.6 µM (inactive)
- GI50 [3]: 35.2 µM
- GI50 [4]: 17.8 µM (inactive)
- GI50 [5]: 27.4 µM (inactive)
- GI50 [6]: 29.6 µM (inactive)
- GI50 [7]: 39.4 µM (inactive)
- GI50 [54]: 14.9 µM (inactive)
- GI50 [8]: 32.4 µM (inactive)
- GI50 [9]: 91.8 µM (inactive)
- GI50 [10]: 15.5 µM (inactive)
- GI50 [11]: 20.5 µM (inactive)
- GI50 [12]: 24.5 µM (inactive)
- GI50 [13]: 22.3 µM (inactive)
- GI50 [14]: 51.3 µM (inactive)
- GI50 [15]: 17.8 µM (inactive)
- GI50 [16]: 44.1 µM (inactive)
- GI50 [17]: 26.2 µM (inactive)
- GI50 [18]: 25.2 µM (inactive)
- GI50 [19]: 35.6 µM (inactive)
- GI50 [20]: 56.1 µM (inactive)
- GI50 [22]: 26.6 µM (inactive)
- GI50 [23]: 37.8 µM (inactive)
- GI50 [24]: 36.7 µM (inactive)
- GI50 [25]: 62.8 µM (inactive)
- GI50 [26]: 20.7 µM (inactive)
- GI50 [27]: 36.2 µM (inactive)
- GI50 [28]: 46 µM (inactive)
- GI50 [55]: 20.3 µM (inactive)
- GI50 [58]: 26.2 µM (inactive)
- GI50 [29]: 42.7 µM (inactive)
- GI50 [30]: 29.4 µM (inactive)
- GI50 [31]: 20.6 µM (inactive)
- GI50 [32]: 33.8 µM (inactive)
- GI50 [34]: 33 µM (inactive)
- GI50 [35]: 39.4 µM (inactive)
- GI50 [36]: 21.2 µM (inactive)
- GI50 [56]: 31.3 µM (inactive)
- GI50 [37]: 23.9 µM (inactive)
- GI50 [39]: 16.1 µM (inactive)
- GI50 [40]: 24 µM (inactive)
- GI50 [41]: 21.4 µM (inactive)
- GI50 [42]: 37.8 µM (inactive)
- GI50 [43]: > 100 µM (inactive)
- GI50 [44]: 31.8 µM (inactive)
- GI50 [45]: 24 µM (inactive)
- GI50 [46]: 26 µM (inactive)
- GI50 [47]: 43.3 µM (inactive)
- GI50 [49]: 22.8 µM (inactive)
- GI50 [50]: 20.5 µM (inactive)
- GI50 [51]: 26.6 µM (inactive)
- GI50 [52]: 27.1 µM (inactive)
- GI50 [59]: 20.6 µM (inactive)
- GI50 [57]: > 100 µM (inactive)
